# Measurements reported in publication PMC12332667, “Role of Structural Modifications in Peptidomimetic Compounds as Potential Antimicrobial Agents against Staphylococcus aureus and Streptococcus pyogenes: Balancing Bioavailability, Safety, and Antimicrobial Activity” (ACS Omega, 2025).
# “And” between values parts separate entries of the source, which are not always exact repeats. Identical values can stand only once. Residues, ends and D or L forms follow the SMILES beside them.
# What was measured:
# S. aureus ATCC 43300 = experiment: MIC/MBC broth microdilution, S. aureus; assay type: cell-based, Staphylococcus aureus; conditions: S. aureus
# S. pyogenes ATCC 19615 = experiment: MIC/MBC broth microdilution, S. pyogenes; assay type: cell-based, Streptococcus pyogenes; conditions: S. pyogenes
# In short: (§1)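 BHI broth microdilution (NCCLS); ~10^5 CFU/mL; 37 °C, 18 h. MIC = lowest conc., no visible growth (≥90% vs untreated). MBC = ≤3 colonies, ≥99.9% kill. Water/DMSO/EtOH solvent controls; technical triplicate ×3 biological repeats.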
# E. faecalis c.i. = experiment: MIC/MBC broth microdilution, E. faecalis; assay type: cell-based, Enterococcus faecalis
# In short: as §1
# S. schleiferi c.i. = experiment: MIC/MBC broth microdilution, S. schleiferi; assay type: cell-based, Staphylococcus schleiferi
# In short: as §1
# S. agalactiae ATCC 27956 = experiment: MIC/MBC broth microdilution, S. agalactiae; assay type: cell-based, Streptococcus agalactiae; conditions: S. agalactiae
# In short: as §1
# S. mutans c.i. = experiment: MIC/MBC broth microdilution, S. mutans; assay type: cell-based, Streptococcus mutans
# In short: as §1
# P. vulgaris ATCC 6896 = experiment: MIC/MBC broth microdilution, P. vulgaris; assay type: cell-based, Proteus vulgaris
# In short: as §1
# [1] = test system: K. pneumoniae ATCC 700603; experiment: MIC/MBC broth microdilution, K. pneumoniae; assay type: cell-based
# In short: as §1
# P. aeruginosa ATCC 10145 = experiment: MIC/MBC broth microdilution, P. aeruginosa; assay type: cell-based
# In short: as §1
# [2] = Hydrophobicity by reverse-phase chromatography; assay type: physicochemical; conditions: acetonitrile content in the mobile phase at the retention time
# Source text: Reverse-phase chromatography was employed to assess the hydrophobicity characteristics of the peptidomimetics. Hydrophobicity was quantified by determining the acetonitrile content in the mobile phase at the retention time of a peptidyl derivative (Table S2). The least hydrophobic compound (40% acetonitrile) was A-198, which aligns with the calculations of hydrophobicity by SwissADME and pkCSM (Table ). Next in the hydrophobicity sequence were A-197, A-220, A-219, A-174, and A-221, eluting with 42.5-43.9% of acetonitrile. Then there were followed by […], and A-179, with the acetonitrile percentage of 44.8-49.8. The compounds A-176, A-20, A-152, A-134, and A-210 needed over 50% of acetonitrile to be eluted from the column.
# [3] = test system: immortalized human HaCaT keratinocytes; experiment: XTT cell proliferation assay, keratinocytes; assay type: cell-based; conditions: for effect on proliferation, in words: 48 and 72 h, 0.01–150 μg/mL
# In short: (§2)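 Proliferation was read as XTT absorbance at 490 nm after 4 h of reagent incubation, following 48 or 72 h of peptide exposure in serum-free HG-DMEM (37 °C, 5% CO2). The 72 h arm included a half-medium change with second peptide dose at 48 h. Significance by Mann–Whitney U, p ≤ 0.05.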
# [4] = test system: human dermal fibroblast cell line (46BR.1N); experiment: XTT cell proliferation assay, fibroblasts; assay type: cell-based; conditions: for effect on proliferation, in words: 48 and 72 h, 0.01–150 μg/mL
# In short: as §2
# [5] = A-196 0.01–10 μg/mL, A-219 above 0.1 μg/mL, A-213 lower concentrations
smiles,measurement,setting,value
CC(C)[C@H](NC(=O)[C@H](Cc1c[nH]cn1)NC(=O)[C@H](CCCNC(=N)N)NC(=O)OCc1ccccc1)C(=O)NCCc1ccccc1 [Compound A-219] (HELM PEPTIDE1{[O=C(OCc1ccccc1)[*:2]].R.H.V.[c1ccc(CCN[*:1])cc1]}$$$$V2.0),MIC,S. aureus ATCC 43300; H2O,> 512 µg/mL
same,MIC,S. aureus ATCC 43300; water additive DMSO,> 512 µg/mL
same,MIC,S. aureus ATCC 43300; water additive EtOH,> 512 µg/mL
same,MBC,S. pyogenes ATCC 19615; H2O,512 µg/mL
same,MIC,S. pyogenes ATCC 19615; H2O,512 µg/mL
same,MBC,S. pyogenes ATCC 19615; water additive DMSO,512 µg/mL
same,MIC,S. pyogenes ATCC 19615; water additive DMSO,512 µg/mL
same,MBC,S. pyogenes ATCC 19615; water additive EtOH,512 µg/mL
same,MIC,S. pyogenes ATCC 19615; water additive EtOH,512 µg/mL
same,MIC,E. faecalis c.i.; H2O,> 512 µg/mL
same,MIC,E. faecalis c.i.; water additive DMSO,> 512 µg/mL
same,MIC,E. faecalis c.i.; water additive EtOH,> 512 µg/mL
same,MIC,S. schleiferi c.i.; H2O,> 512 µg/mL
same,MIC,S. schleiferi c.i.; water additive DMSO,> 512 µg/mL
same,MIC,S. schleiferi c.i.; water additive EtOH,> 512 µg/mL
same,MIC,S. agalactiae ATCC 27956; H2O,> 512 µg/mL
same,MIC,S. agalactiae ATCC 27956; water additive DMSO,> 512 µg/mL
same,MIC,S. agalactiae ATCC 27956; water additive EtOH,> 512 µg/mL
same,MIC,S. mutans c.i.; H2O,> 512 µg/mL
same,MIC,S. mutans c.i.; water additive DMSO,> 512 µg/mL
same,MIC,S. mutans c.i.; water additive EtOH,> 512 µg/mL
same,MIC,P. vulgaris ATCC 6896; H2O,> 512 µg/mL
same,MIC,P. vulgaris ATCC 6896; water additive DMSO,> 512 µg/mL
same,MIC,P. vulgaris ATCC 6896; water additive EtOH,> 512 µg/mL
same,MIC,[1]; H2O,> 512 µg/mL
same,MIC,[1]; water additive DMSO,> 512 µg/mL
same,MIC,[1]; water additive EtOH,> 512 µg/mL
same,MBC,P. aeruginosa ATCC 10145; H2O,> 512 µg/mL
same,MIC,P. aeruginosa ATCC 10145; H2O,512 µg/mL
same,MBC,P. aeruginosa ATCC 10145; water additive DMSO,512 µg/mL
same,MIC,P. aeruginosa ATCC 10145; water additive DMSO,256 µg/mL
same,MBC,P. aeruginosa ATCC 10145; water additive EtOH,> 512 µg/mL
same,MIC,P. aeruginosa ATCC 10145; water additive EtOH,512 µg/mL
same,% AcCN (acetonitrile required for elution from the column),[2],42.6%
same,pro-proliferative effect above control,[3]; [5],around 20%
same,"effect on proliferation, in words",[3]; XTT,best pro-proliferative effect
same,pro-proliferative effect above control,[4]; [5],around 20%
same,"effect on proliferation, in words",[4]; XTT,best pro-proliferative effect
CC(C)[C@@H](CNC(=O)C(=Cc1ccccc1)c1ccccc1)NC(=O)[C@H](CCCNC(=N)N)NC(=O)[C@H](CCCCNC(=N)N)NC(=O)OCc1ccccc1 [Compound A-192],MBC,S. aureus ATCC 43300; H2O,4 µg/mL
same,MIC,S. aureus ATCC 43300; H2O,4 µg/mL
same,MBC,S. aureus ATCC 43300; water additive DMSO,16 µg/mL
same,MIC,S. aureus ATCC 43300; water additive DMSO,16 µg/mL
same,MBC,S. aureus ATCC 43300; water additive EtOH,16 µg/mL
same,MIC,S. aureus ATCC 43300; water additive EtOH,16 µg/mL
same,MBC,S. pyogenes ATCC 19615; H2O,8 µg/mL
same,MIC,S. pyogenes ATCC 19615; H2O,8 µg/mL
same,MBC,S. pyogenes ATCC 19615; water additive DMSO,8 µg/mL
same,MIC,S. pyogenes ATCC 19615; water additive DMSO,8 µg/mL
same,MBC,S. pyogenes ATCC 19615; water additive EtOH,8 µg/mL
same,MIC,S. pyogenes ATCC 19615; water additive EtOH,4 µg/mL
same,MIC,E. faecalis c.i.; H2O,> 512 µg/mL
same,MIC,E. faecalis c.i.; water additive DMSO,> 512 µg/mL
same,MBC,E. faecalis c.i.; water additive EtOH,512 µg/mL
same,MIC,E. faecalis c.i.; water additive EtOH,256 µg/mL
same,MBC,S. schleiferi c.i.; H2O,256 µg/mL
same,MIC,S. schleiferi c.i.; H2O,256 µg/mL
same,MBC,S. schleiferi c.i.; water additive DMSO,256 µg/mL
same,MIC,S. schleiferi c.i.; water additive DMSO,256 µg/mL
same,MBC,S. schleiferi c.i.; water additive EtOH,256 µg/mL
same,MIC,S. schleiferi c.i.; water additive EtOH,256 µg/mL
same,MIC,S. agalactiae ATCC 27956; H2O,32 µg/mL
same,MIC,S. agalactiae ATCC 27956; water additive EtOH,32 µg/mL
same,MIC,S. mutans c.i.; H2O,> 512 µg/mL
same,MIC,S. mutans c.i.; water additive DMSO,> 512 µg/mL
same,MIC,S. mutans c.i.; water additive EtOH,> 512 µg/mL
same,MIC,P. vulgaris ATCC 6896; H2O,> 512 µg/mL
same,MIC,P. vulgaris ATCC 6896; water additive DMSO,> 512 µg/mL
same,MIC,P. vulgaris ATCC 6896; water additive EtOH,> 512 µg/mL
same,MIC,[1]; H2O,> 512 µg/mL
same,MIC,[1]; water additive DMSO,> 512 µg/mL
same,MIC,[1]; water additive EtOH,> 512 µg/mL
same,MBC,P. aeruginosa ATCC 10145; H2O,256 µg/mL
same,MIC,P. aeruginosa ATCC 10145; water additive EtOH,> 512 µg/mL
same,% AcCN (acetonitrile required for elution from the column),[2],44.8–49.8% and 48.7%
same,proliferation relative to control at 100 and 150 μg/mL,[3]; XTT,25%
same,proliferation relative to control at 50 μg/mL,"[3]; XTT, 50 μg/mL",50%
same,"effect on proliferation, in words",[3]; XTT,negative impact
same,proliferation relative to control at 100 and 150 μg/mL,[4]; XTT,25%
same,proliferation relative to control at 50 μg/mL,"[4]; XTT, 50 μg/mL",50%
same,"effect on proliferation, in words",[4]; XTT,negative impact
CC(C)[C@H](NC(=O)[C@H](Cc1c[nH]cn1)NC(=O)[C@H](CCCCN)NC(=O)OCc1ccccc1)C(=O)NCCc1ccccc1 [Compound A-220] (HELM PEPTIDE1{[O=C(OCc1ccccc1)[*:2]].K.H.V.[c1ccc(CCN[*:1])cc1]}$$$$V2.0),MBC,S. aureus ATCC 43300; H2O,512 µg/mL
same,MIC,S. aureus ATCC 43300; H2O,512 µg/mL
same,MBC,S. aureus ATCC 43300; water additive DMSO,512 µg/mL
same,MIC,S. aureus ATCC 43300; water additive DMSO,512 µg/mL
same,MBC,S. aureus ATCC 43300; water additive EtOH,512 µg/mL
same,MIC,S. aureus ATCC 43300; water additive EtOH,512 µg/mL
same,MBC,S. pyogenes ATCC 19615; H2O,> 512 µg/mL
same,MIC,S. pyogenes ATCC 19615; H2O,512 µg/mL
same,MBC,S. pyogenes ATCC 19615; water additive DMSO,256 µg/mL
same,MBC,S. pyogenes ATCC 19615; water additive EtOH,512 µg/mL
same,MIC,S. pyogenes ATCC 19615; water additive EtOH,512 µg/mL
same,MIC,E. faecalis c.i.; H2O,> 512 µg/mL
same,MIC,E. faecalis c.i.; water additive DMSO,> 512 µg/mL
same,MIC,E. faecalis c.i.; water additive EtOH,> 512 µg/mL
same,MIC,S. schleiferi c.i.; H2O,> 512 µg/mL
same,MIC,S. schleiferi c.i.; water additive DMSO,> 512 µg/mL
same,MIC,S. schleiferi c.i.; water additive EtOH,> 512 µg/mL
same,MBC,S. agalactiae ATCC 27956; H2O,512 µg/mL
same,MIC,S. agalactiae ATCC 27956; H2O,512 µg/mL
same,MBC,S. agalactiae ATCC 27956; water additive DMSO,512 µg/mL
same,MIC,S. agalactiae ATCC 27956; water additive DMSO,512 µg/mL
same,MBC,S. agalactiae ATCC 27956; water additive EtOH,512 µg/mL
same,MIC,S. agalactiae ATCC 27956; water additive EtOH,512 µg/mL
same,MBC,S. mutans c.i.; H2O,512 µg/mL
same,MIC,S. mutans c.i.; H2O,256 µg/mL
same,MIC,S. mutans c.i.; water additive DMSO,> 512 µg/mL
same,MIC,S. mutans c.i.; water additive EtOH,> 512 µg/mL
same,MIC,P. vulgaris ATCC 6896; H2O,> 512 µg/mL
same,MIC,P. vulgaris ATCC 6896; water additive DMSO,> 512 µg/mL
same,MIC,P. vulgaris ATCC 6896; water additive EtOH,> 512 µg/mL
same,MIC,[1]; H2O,> 512 µg/mL
same,MIC,[1]; water additive DMSO,> 512 µg/mL
same,MIC,[1]; water additive EtOH,> 512 µg/mL
same,MBC,P. aeruginosa ATCC 10145; H2O,> 512 µg/mL
same,MIC,P. aeruginosa ATCC 10145; H2O,512 µg/mL
same,MBC,P. aeruginosa ATCC 10145; water additive DMSO,> 512 µg/mL
same,MIC,P. aeruginosa ATCC 10145; water additive DMSO,512 µg/mL
same,MBC,P. aeruginosa ATCC 10145; water additive EtOH,> 512 µg/mL
same,MIC,P. aeruginosa ATCC 10145; water additive EtOH,512 µg/mL
same,% AcCN (acetonitrile required for elution from the column),[2],42.4%
same,"effect on proliferation, in words",[3]; XTT,did not exert any negative impact
same,"effect on proliferation, in words",[4]; XTT,did not exert any negative impact
